Results: PubChem BioAssay (NCI)
“And” between values parts separate entries of the source, which are not always exact repeats. Equal values may be shown once.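 Where inhibition never reached the appropriate level, the endpoint shown equals the highest concentration tested. Otherwise, values were interpolated linearly from a five-concentration, 48-hour dose response in 96-well plates. Abbreviation: GI50, concentration required for 50% inhibition of growth. At the TGI there is no net growth.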

Tests used:
Assay in all cases: DTP human tumour cell line panel, 48 h
[1] = system: 786-0 renal
[2] = system: EKVX NSCLC
[3] = system: HCC-2998 colon
[4] = system: KM12 colon
[5] = system: LOX IMVI melanoma
[6] = system: NCI/ADR-RES ovarian
[7] = system: OVCAR-5 ovarian
[8] = system: RXF 393 renal
[9] = system: SNB-75 CNS
[10] = system: T-47D breast

| SMILES | GI50 [1] | TGI [1] | TGI [2] | GI50 [3] | GI50 [4] | TGI [4] | GI50 [5] | TGI [5] | GI50 [6] | TGI [6] | GI50 [7] | TGI [7] | GI50 [8] | TGI [8] | GI50 [9] | TGI [9] | GI50 [10] | TGI [10] | GI50 [2] | TGI [3] |
| --- | --- | --- | --- | --- | --- | --- | --- | --- | --- | --- | --- | --- | --- | --- | --- | --- | --- | --- | --- | --- |
| COc1cc(C2C3=C(COC3=O)Nc3cc4c(cc32)OCO4)cc2c1OCO2 (stereo not drawn) | 0.138 µM | > 100 µM | > 100 µM | 0.109 µM | 0.0355 µM | 1.92 µM | 0.0801 µM | > 100 µM | 0.0785 µM | 0.606 µM | 1.09 µM | > 100 µM | 0.0304 µM | > 100 µM | 0.0337 µM | 2.75 µM | > 100 µM | > 100 µM | – | – |
| CC12CCC(O)CC1=CCC1C2CCC2(C)C(c3cccnc3)=CCC12 (stereo not drawn) | 50.4 µM | > 100 µM | > 100 µM | > 100 µM | > 100 µM | > 100 µM | > 100 µM | > 100 µM | > 100 µM | > 100 µM | > 100 µM | > 100 µM | 40.2 µM | > 100 µM | 48.5 µM | > 100 µM | > 100 µM | > 100 µM | > 100 µM | > 100 µM |
| O=C(c1ccccc1O)c1[nH]c(Cl)c(Cl)c1-n1c(C(=O)c2ccccc2O)cc(Cl)c1Cl | 2.11 µM and 1.73 µM | 11.2 µM and 7.99 µM | 10 µM | 0.994 µM and 0.931 µM | 1.92 µM and 0.75 µM | 12.1 µM and 11.9 µM | 2.72 µM and 2.48 µM | 10.6 µM and 10.7 µM | 0.669 µM and 0.456 µM | 12.9 µM and 11.2 µM | 2.54 µM and 2.73 µM | 9.87 µM and 14.6 µM | 1.09 µM and 0.754 µM | 9.12 µM and 6.72 µM | 1.8 µM and 1.58 µM | 10.3 µM and 8.76 µM | 0.36 µM and 0.46 µM | 3.34 µM and 11.2 µM | 0.549 µM | 12.7 µM and 11.6 µM |
| COc1cc2c(cc1O)C(c1cc(O)c(O)c(OC)c1)C(O)(C(=O)O)C(CO)C2O (stereo not drawn) | – | 30.5 µM | 36.9 µM | – | – | > 100 µM | – | 33.3 µM | – | > 100 µM | – | > 100 µM | – | > 100 µM | – | > 100 µM | – | > 100 µM | – | > 100 µM |
| CC(=O)c1cccc(NC(=O)c2ccc(NC3=C(Cl)C(=O)N(Cc4ccccc4)C3=O)cc2)c1 | 16.5 µM | 36.4 µM | 97.3 µM | 23.1 µM | 20 µM | 43 µM | 13.9 µM | 33.8 µM | 30.8 µM | > 100 µM | > 100 µM | > 100 µM | 24 µM | > 100 µM | 30.1 µM | > 100 µM | 25.1 µM | > 100 µM | 30.3 µM | 41 µM |
| CCCCCSC1C2C(=O)C(Br)=CC13CCNc1c(O)c4c5c(c13)=[N+]2CCC=5C=N4 (stereo not drawn) | 2.7 µM | 5.12 µM | 5.07 µM | 1.25 µM | 2.53 µM | 6.26 µM | 0.842 µM | 3.35 µM | 4.42 µM | 16.7 µM | 3.07 µM | 7.08 µM | 1.87 µM | 4.42 µM | 2.35 µM | 4.56 µM | 1.74 µM | 6.03 µM | 1.82 µM | 3.88 µM |
| O=Nc1c(O)c2ccccc2c2ccccc12 | 2.84 µM | 7.04 µM | 3.32 µM | 1.91 µM | 1.76 µM | 3.34 µM | 0.294 µM | 1.06 µM | 0.387 µM | 2.95 µM | 1.94 µM | 4.53 µM | 1.72 µM | 3.23 µM | 1.51 µM | 2.92 µM | 1.32 µM | 3.57 µM | 1.7 µM | 3.7 µM |
| Oc1c2c(c(O)c3ccccc13)C1(N=N2)c2ccccc2Oc2ccccc21 | – | 11.5 µM | 28.3 µM | – | – | 38.6 µM | – | 7.31 µM | – | 33.4 µM | – | 26.5 µM | – | 4.65 µM | – | 33.5 µM | – | 47.8 µM | – | 38.7 µM |
| COc1ccc(C(=O)OC2C(OC3C(O)COC(O[C@H]4C[C@H]5[C@@H]6CC=C7C[C@@H](O)CC[C@]7(C)[C@H]6CC[C@]5(C)[C@H]4[C@H](C)C(=O)CCC(C)C)C3OC(C)=O)OCC(O)C2O)cc1 (stereo partly drawn) | < 0.003 µM | 0.441 µM | 2.4 µM | 0.216 µM | 0.00399 µM | 4.48 µM | < 0.003 µM | 0.00483 µM | 7.49 µM | 30 µM | 0.00601 µM | 1.63 µM | < 0.003 µM | < 0.003 µM | < 0.003 µM | 4.36 µM | < 0.003 µM | 1.13 µM | < 0.003 µM | 12.7 µM |
| CC(=O)c1ccc2c(c1)N(CCCN(C)C)c1ccccc1S2 | 12 µM | 25 µM | 30.9 µM | 14.4 µM | 15.7 µM | 29.6 µM | 12.4 µM | 25.4 µM | 13.6 µM | 28.3 µM | 13.9 µM | 27.9 µM | 8.86 µM | 22 µM | 1.99 µM | 16.4 µM | 16.6 µM | 39.6 µM | 13.1 µM | 27.6 µM |
| Cc1cc(O)cc(C)c1/C=C/c1cncc(C(=O)OC(C)(C)C)c1 | 19.1 µM | > 25 µM | > 25 µM | > 25 µM | 15.2 µM | > 25 µM | 16 µM | > 25 µM | 14.6 µM | > 25 µM | > 25 µM | > 25 µM | 9.75 µM | > 25 µM | 4.75 µM | > 23.9 µM | 10.7 µM | > 25 µM | 12.6 µM | > 25 µM |
| CC1(C)CC(=O)c2c(ccc(C(=O)C[C@@H](N)CO)c2N)O1 | 11.9 µM | > 61.4 µM | > 100 µM | 0.371 µM | 0.297 µM | > 91.7 µM | 0.0986 µM | 1.11 µM | 2.55 µM | > 100 µM | 22.8 µM | > 100 µM | 1.45 µM | 7.44 µM | 17.7 µM | > 100 µM | 4.56 µM | > 67.6 µM | 19 µM | 4.63 µM |
| CN(C)c1ccc(C(=C2C=CC(=[N+](C)C)C=C2)c2ccccc2Cl)cc1 | 0.341 µM | 1.13 µM | 1.45 µM | 0.354 µM | 0.283 µM | 0.929 µM | 0.224 µM | 0.836 µM | 1.89 µM | 14.8 µM | 0.408 µM | 1.48 µM | 0.405 µM | 1.61 µM | 0.238 µM | 0.851 µM | 0.188 µM | 0.901 µM | 0.162 µM | 1.28 µM |
